Measured values published in patent publication US8642265B2, “Compositions and methods for the detection of topoisomerase II complexes with DNA” (The Children's Hospital of Philadelphia, priority 2004, dated 2014).

Key:
[1] = biological target: T1, DNA topoisomerase II covalent complexes in KG1 cells (Homo sapiens, UniProt P11388); experiment: Modified ICE bioassay in KG1 cells; format: cell-based; conditions: doxorubicin at 100 μM
T1 construct: endogenous in cells; host or cells: KG1 (KG-1) cells
T1 sequence (P11388 whole entry, one chain of several): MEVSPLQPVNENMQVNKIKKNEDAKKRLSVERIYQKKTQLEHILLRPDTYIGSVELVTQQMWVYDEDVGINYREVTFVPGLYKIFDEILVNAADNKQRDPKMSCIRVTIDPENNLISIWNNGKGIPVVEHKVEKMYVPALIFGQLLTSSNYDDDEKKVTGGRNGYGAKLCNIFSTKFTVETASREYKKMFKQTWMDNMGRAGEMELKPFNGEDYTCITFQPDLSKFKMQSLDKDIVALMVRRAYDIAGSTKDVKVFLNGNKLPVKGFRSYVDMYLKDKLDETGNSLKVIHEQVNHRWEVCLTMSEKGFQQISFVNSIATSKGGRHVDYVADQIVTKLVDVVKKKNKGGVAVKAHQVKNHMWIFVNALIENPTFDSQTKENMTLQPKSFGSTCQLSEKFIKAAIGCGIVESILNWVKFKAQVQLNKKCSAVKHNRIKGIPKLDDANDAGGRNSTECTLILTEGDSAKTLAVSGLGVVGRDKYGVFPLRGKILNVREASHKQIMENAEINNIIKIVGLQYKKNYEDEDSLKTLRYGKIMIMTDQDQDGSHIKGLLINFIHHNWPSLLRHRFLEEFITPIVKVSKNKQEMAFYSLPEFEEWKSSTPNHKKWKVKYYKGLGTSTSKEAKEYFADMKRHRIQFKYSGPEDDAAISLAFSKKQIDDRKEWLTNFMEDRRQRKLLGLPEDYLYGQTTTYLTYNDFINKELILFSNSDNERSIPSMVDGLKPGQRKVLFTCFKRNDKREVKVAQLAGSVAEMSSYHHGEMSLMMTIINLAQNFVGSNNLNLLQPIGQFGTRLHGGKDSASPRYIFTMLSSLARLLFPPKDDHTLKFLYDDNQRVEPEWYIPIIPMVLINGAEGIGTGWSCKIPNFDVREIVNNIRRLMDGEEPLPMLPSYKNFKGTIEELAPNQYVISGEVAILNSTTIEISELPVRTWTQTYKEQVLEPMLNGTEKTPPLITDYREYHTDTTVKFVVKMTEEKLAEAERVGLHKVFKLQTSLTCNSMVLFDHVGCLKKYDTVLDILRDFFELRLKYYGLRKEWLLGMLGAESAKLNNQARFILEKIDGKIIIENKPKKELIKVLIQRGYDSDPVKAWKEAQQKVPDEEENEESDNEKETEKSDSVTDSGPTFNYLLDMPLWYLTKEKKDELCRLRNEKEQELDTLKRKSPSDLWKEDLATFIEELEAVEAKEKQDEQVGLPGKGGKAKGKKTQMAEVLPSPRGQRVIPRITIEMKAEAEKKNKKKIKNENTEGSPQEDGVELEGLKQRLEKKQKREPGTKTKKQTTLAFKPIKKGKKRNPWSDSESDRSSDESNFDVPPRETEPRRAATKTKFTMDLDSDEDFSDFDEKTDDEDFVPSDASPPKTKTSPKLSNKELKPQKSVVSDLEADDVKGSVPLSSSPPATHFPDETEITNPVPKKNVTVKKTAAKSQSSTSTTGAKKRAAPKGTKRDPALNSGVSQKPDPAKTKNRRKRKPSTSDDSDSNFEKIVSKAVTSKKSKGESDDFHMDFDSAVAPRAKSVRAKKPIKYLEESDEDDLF
Experimental: The assays were performed on CEM cells (FIG. 7A), K562 cells (FIGS. 7B and 7C), and KG-1 cells (FIG. 7D).
(§1) After flash-freezing and thawing at 37° C., the DNA was sheared by passage through a 251/2 G needle. […] The pellet was dissolved in 200 μl of 10 mM Tris-HCl (pH 8.0) 1 mM EDTA buffer, the DNA was quantified and 5.6 μg of DNA was analyzed on a Western blot with a mouse anti-human DNA topoisomerase IIα antibody (DAKO, Glostrup, Denmark) to detect DNA topoisomerase IIα-bound DNA (11).
(§2) However, doxorubicin is an intercalative DNA topoisomerase II poison that induces DNA topoisomerase II cleavage with different sequence site-selectivity (Capranico et al., 1990) and that also is associated with leukemia as a treatment complication, albeit less often (Sandoval et al., 1993).

[2] = biological target: DNA topoisomerase II cleavage complexes in CEM cells (Homo sapiens, UniProt P11388); experiment: Modified ICE (in vivo complex of enzyme) bioassay in CEM cells; conditions: 20 μM, 2 hours
Sequence of DNA topoisomerase II cleavage complexes in CEM cells (P11388 whole entry, one chain of several): as above

[3] = biological target: T2, DNA topoisomerase II cleavage complexes in K562 cells (Homo sapiens, UniProt P11388); experiment: Modified ICE bioassay in K562 cells; format: cell-based; conditions: for induction of DNA topoisomerase II cleavage complexes: 20 μM
T2 construct: endogenous in cells; host or cells: K562 cells
T2 sequence (P11388 whole entry, one chain of several): as above
Experimental: as §1, §2

[4] = biological target: human DNA topoisomerase IIα (Homo sapiens, UniProt P11388); experiment: DNA topoisomerase II in vitro cleavage assay; conditions: for cleavage at MLL bcr position 6588 over cleavage without drug (enzyme-only): drug at 20 μM, 10 min 37° C.
Sequence of human DNA topoisomerase IIα (P11388 whole entry): as the sequence (P11388 whole entry, one chain of several) above

[5] = biological target: T3, DNA topoisomerase II covalent complexes in ex vivo expanded CD34+ cells (Homo sapiens, UniProt P11388); experiment: Modified ICE bioassay in ex vivo expanded CD34+ cells; format: cell-based; conditions: 2 hours, etoposide 100 μM
T3 construct: endogenous in cells; host or cells: primary human bone marrow CD34+ cells, expanded ex vivo
T3 sequence (P11388 whole entry, one chain of several): as above
Experimental: as §1

[6] = biological target: T4, DNA topoisomerase II cleavage complexes with the MLL bcr in CD34+ cells (Homo sapiens, UniProt P11388); experiment: MLL bcr oligonucleotide microarray (XEOCHIP) of DNA topoisomerase II-bound DNA; format: cell-based; conditions: 100 μM, Q-Q plot
T4 construct: endogenous in cells; host or cells: primary human bone marrow CD34+ cells, expanded ex vivo
T4 sequence (P11388 whole entry, one chain of several): as above
Source text: Employing XEOCHIP™ technology (Xeotron, Houston, Tex.), a first generation MLL bcr oligonucleotide array containing replicate slots of each of 162 probes was created. The 162 probes included 73 probes for the non-repetitive MLL bcr sequences, 8 probes for the Alu region between nucleotide positions 663-1779 in the MLL bcr, 57 probes for MLL exon 25 which is unaffected by the translocations, and 24 probes for 9 bacterial control genes (see Tables 2 and 3; Tables 4 and 5 provide another example of a series of oligonucleotides that can be employed in a microarray). The 8.3 kb MLL bcr is represented by replicates of each of the 73 50 mers at average intervals of 115 bases to span the bcr. Because it has been well documented in the literature that the printing, general hybridization conditions, and scanning of microarrays introduce systemic effects that are related to the position on the chip, replicates of each of the probes in the array have been spaced throughout the chip.
Primary CD34+ selected human bone marrow cells were obtained through the NHLBI or purchased commercially. The cells were expanded ex vivo using conditions optimized to promote minimal differentiation in order to increase cell numbers as required to generate a useful model system.
DOP of the immunoaffinity-purified DNA topoisomerase II cleavage complexes from the treated and untreated cells was performed exactly as was done with the reference sample. […] Dye-swap experiments were also performed.
GeneSpring (Silicon Genetics, Redwood City, Calif.) was employed as a computational tool to visualize and analyze the data from MLL bcr XEOCHIPS™ with either treated or untreated samples in one channel and the reference sample in the other.
DOP-amplified DNA from the DNA topoisomerase II cleavage complexes in treated or untreated cells on separate chips was labeled with ALEXA FLUOR® 546. The MLL bcr reference sample was labeled with ALEXA FLUOR® 647. The null hypothesis represented by the straight line is that there is no effect at any probe, whereas upward departure points are potential hotspots and downward departure points are potential coldspots.

[7] = test system: ex vivo expanded CD34+ cells; experiment: Cell viability by Trypan Blue exclusion; format: cell-based, human; conditions: etoposide 2 hours, same for untreated
Experimental: as §1
Cell viability assessed by Trypan blue exclusion was ˜70% for both conditions. As predicted in proliferating cells (6), native DNA topoisomerase II covalent complexes were detected in the untreated cells. […] The DNA topoisomerase IIα protein ran higher than its known molecular weight of 170 kDa, which is consistent with the presence of DNA bound to the enzyme.

[8] = biological target: T5, DNA topoisomerase II covalent complexes with MLL and other sequences in CD34+ cells (Homo sapiens, UniProt P11388); experiment: Immunoaffinity purification, DOP amplification and real-time PCR of DNA topoisomerase IIα-bound DNA; format: cell-based
T5 construct: endogenous in cells; host or cells: primary human bone marrow CD34+ cells, expanded ex vivo
T5 sequence (P11388 whole entry, one chain of several): as above

[9] = 20 μM, additional 10 min at 75° C.

Structure (SMILES) | induction of DNA topoisomerase II covalent complexes [1] | induction of DNA topoisomerase II cleavage complexes [2] | induction of DNA topoisomerase II cleavage complexes [3] | cleavage at MLL bcr position 6588 over cleavage without drug (enzyme-only) ([4]; MLL intron 8 substrate) | formation of DNA topoisomerase II covalent complexes versus untreated cells [5] | cleavage at AF-4 intron 3 position 7126 relative to the strongest enzyme-only cleavage in the substrate (position 7114) ([4]; 20 μM, AF-4 intron 3 substrate) | rank in relative intensity of cleavage at AF-4 position 7126 among all cleavage sites ([4]; 20 μM, AF-4 intron 3 substrate) | potential coldspots for DNA topoisomerase II cleavage complexes (array probes), treated vs untreated [6] | potential hotspots for DNA topoisomerase II cleavage complexes (array probes), treated vs untreated [6] | other results
COc1cccc2c1C(=O)c1c(O)c3c(c(O)c1C2=O)C[C@@](O)(C(=O)CO)C[C@@H]3O[C@H]1C[C@H](N)[C@H](O)[C@H](C)O1 [doxorubicin] | induced DNA II covalent complexes | no induction | no induction | 0.4 fold |  |  |  |  |  | cleavage over enzyme-only cleavage at MLL bcr positions 4675 and 4673 and GAS7 position 1238 ([4]; 0.01 μM): quantifiably enhanced cleavage; effect on cleavage at MLL bcr position 6588 over a range of concentrations ([4]; 0.01 μM to 0.5 μM): dose-dependent increases over enzyme-only cleavage; cleavage at MLL 4675, 4673 and GAS7 1238 at high concentration ([4]; 20 μM): complete diminution; cleavage at AF-4 intron 3 position 7126 ([4]; 20 μM or lower concentrations, AF-4 intron 3 substrate): no detectable cleavage; concentration at which cleavage at AF-4 positions 7111, 7114 and 7119 began to decrease ([4]; AF-4 intron 3 substrate): 0.5 µM; effect on cleavage at AF-4 intron 3 positions 7111, 7114 and 7119 over a range of concentrations ([4]; AF-4 intron 3 substrate): dose-dependent increases in cleavage stimulation over enzyme-only cleavage; concentration at which cleavage enhancement at MLL 4675, 4673 and GAS7 1238 began to decrease ([4]; MLL and GAS7 substrates): 0.1 µM; concentration at which cleavage enhancement at MLL bcr position 6588 began to decrease ([4]; MLL intron 8 substrate): 2.5 µM; effect on cleavage at MLL bcr positions 6587 and 6589 ([4]; all concentrations tested): only catalytic inhibition
COc1cc([C@@H]2c3cc4c(cc3[C@@H](O[C@@H]3O[C@@H]5CO[C@@H](C)O[C@H]5[C@H](O)[C@H]3O)[C@H]3COC(=O)[C@H]23)OCO4)cc(O)c1O [etoposide catechol] |  | significant induction |  | 4.4 fold | increased formation of topoisomerase-DNA cleavage complexes | 5.9 fold | first |  |  | amount of cleavage complexes induced compared with etoposide [2]: comparable in amount to the parent drug
COC1=CC(C2c3cc4c(cc3C(O[C@@H]3O[C@@H]5COC(C)O[C@H]5[C@H](O)[C@H]3O)C3COC(=O)C23)OCO4)=CC(=O)C1=O (stereo partly drawn) [etoposide quinone] |  | significant induction | Induction of DNA cleavage complexes was also observed | 9.8 fold |  | 3.4 fold | 5th |  |  | concentration dependence of induction of DNA topoisomerase II cleavage complexes ([3]; 2 hours): concentration dependent increase; rank of cleavage at MLL bcr position 6588 among cleavage sites in the substrate ([4]; 20 μM, MLL intron 8 substrate): 3rd
COc1cc([C@@H]2c3cc4c(cc3[C@@H](O[C@@H]3O[C@@H]5CO[C@@H](C)O[C@H]5[C@H](O)[C@H]3O)[C@H]3COC(=O)[C@H]23)OCO4)cc(OC)c1O [etoposide] | induced DNA II covalent complexes | significant induction | Induction of DNA cleavage complexes was also observed | 7.9 fold | increased formation of DNA topoisomerase II covalent complexes |  |  | probes 2-28, 1-30, 1-18, and 1-15 | probes 1-41 and 1-51 | heat stability of cleavage at AF-4 intron 3 position 7126 [4, 9]: especially heat-stable; heat stability of cleavage complexes at MLL bcr position 6588 [4, 9]: remained detectable after heating; cell viability assessed by Trypan blue exclusion [7]: ~70%
O=c1c(-c2ccc(O)cc2)coc2cc(O)cc(O)c12 [genistein] |  |  |  |  |  |  |  | probes 1-31 (SEQ ID NO: 27), 2-50 (SEQ ID NO: 162), 1-74 (SEQ ID NO: 62), 2-28 (SEQ ID NO: 34), 1-10 (SEQ ID NO: 83), and 1-22 (SEQ ID NO: 71) | Probes 1-68 (SEQ ID NO: 157), 1-41 (SEQ ID NO: 49), 1-51 (SEQ ID NO: 141), and 1-33 (SEQ ID NO: 132) | real-time PCR products, MLL intron 7-exon 8 amplicon [8]: real-time PCR products that were detected
